US20100267561A1, “HERBICIDAL PYRIDAZINONE DERIVATIVES” (priority 2007, published 2010)

Key:
Experiment in all cases: Test B pre-/postemergence plant response
Format in all cases: in vivo
[1] = system: goosegrass (Eleusine indica)
How it was run: (§1)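 Preemergence and postemergence (plants 2-18 cm, 1- to 4-leaf stage) applications used test chemicals in a non-phytotoxic solvent with surfactant. Plants were held in a greenhouse 13 to 15 days, then rated visually against controls on a 0-100 scale (0 no effect, 100 complete control).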

[2] = system: common ragweed (Ambrosia elation)
How it was run: as §1

wild oat (Avena fatua) = system: wild oat (Avena fatua)
How it was run: as §1

[3] = system: surinam grass (Brachiaria decumbens)
How it was run: as §1

kochia (Kochia scoparia) = settings: for Kochia plant response rating: postemergence, 0-100 scale; for Plant response rating, Kochia: Postemergence
How it was run: as §1

soybean (Glycine max) = system: soybean (Glycine max)
How it was run: as §1

[4] = system: green foxtail (Setaria viridis)
How it was run: as §1

[5] = system: eastern black (E.B.) nightshade (Solanum ptycanthum); settings: Preemergence; for Nightshade, E. B. plant response rating: scale 0 to 100
How it was run: as §1

[6] = system: lambsquarters (Chenopodium album)
How it was run: as §1

[7] = system: wheat (Triticum aestivum)
How it was run: as §1

[8] = system: common (oilseed) sunflower (Helianthus annuus); settings: Preemergence; for Sunflower plant response rating: scale 0 to 100
How it was run: as §1

[9] = system: large crabgrass (Digitaria sanguinalis)
How it was run: as §1

[10] = system: blackgrass (Alopecurus myosuroides)
How it was run: as §1

[11] = system: morningglory (Ipomoea coccinea)
How it was run: as §1

[12] = 8 g ai/ha, postemergence, 0-100 scale
[13] = 16 g ai/ha, postemergence, 0-100 scale
[14] = Postemergence, 31 g ai/ha, scale 0 to 100
[15] = Postemergence, 62 g ai/ha, scale 0 to 100, 0 no effect, 100 complete control
[16] = Preemergence, 31 g ai/ha, scale 0 to 100 (0 no effect, 100 complete control)
[17] = Preemergence, 62 g ai/ha, 0 to 100 scale, 0 no effect, 100 complete control
[18] = Preemergence, 8 g ai/ha, scale 0 to 100
[19] = Preemergence, 16 g ai/ha, scale 0 to 100
[20] = 62 g ai/ha, scale 0 to 100, 0 no effect, 100 complete control
[21] = Postemergence, 16 g ai/ha, scale 0 to 100
[22] = 31 g ai/ha, scale 0 to 100 (0 no effect, 100 complete control)
[23] = 62 g ai/ha, 0 to 100 scale, 0 no effect, 100 complete control

CCc1cc(-c2ccc(Br)cc2)nn1-c1c(O)c(C)nn(C)c1=O [Compound 74]
Goosegrass plant response rating [1, 12]: 60 | Goosegrass plant response rating [1, 13]: 65 | Plant response rating, Goosegrass [1, 14]: 75 | Plant response rating, Goosegrass [1, 15]: 85 | Plant response rating, Goosegrass [1, 16]: 100 | Plant response rating, Goosegrass [1, 17]: 100 | Goosegrass plant response rating [1, 18]: 95 | Goosegrass plant response rating [1, 19]: 98 | Ragweed plant response rating [2, 12]: 0 | Ragweed plant response rating [2, 13]: 0 | Plant response rating, Ragweed [2, 14]: 0 | Plant response rating, Ragweed [2, 15]: 0 | Plant response rating, Ragweed [2, 16]: 0 | Plant response rating, Ragweed [2, 17]: 0 | Ragweed plant response rating [2, 18]: 0 | Ragweed plant response rating [2, 19]: 0 | Oat, Wild plant response rating (wild oat (Avena fatua); [12]): 98 | Oat, Wild plant response rating (wild oat (Avena fatua); [13]): 98 | Plant response rating, Oat, Wild (wild oat (Avena fatua); [14]): 100 | Plant response rating, Oat, Wild (wild oat (Avena fatua); [15]): 100 | Plant response rating, Oat, Wild (wild oat (Avena fatua); [16]): 70 | Plant response rating, Oat, Wild (wild oat (Avena fatua); [17]): 80 | Oat, Wild plant response rating (wild oat (Avena fatua); [18]): 50 | Oat, Wild plant response rating (wild oat (Avena fatua); [19]): 70 | Surinam Grass plant response rating [3, 12]: 85 | Surinam Grass plant response rating [3, 13]: 100 | Plant response rating, Surinam Grass [3, 14]: 100 | Plant response rating, Surinam Grass [3, 15]: 100 | Plant response rating, Surinam Grass [3, 16]: 100 | Plant response rating, Surinam Grass [3, 17]: 100 | Surinam Grass plant response rating [3, 18]: 100 | Surinam Grass plant response rating [3, 19]: 100 | Kochia plant response rating (kochia (Kochia scoparia); 8 g ai/ha): 0 | Kochia plant response rating (kochia (Kochia scoparia); 16 g ai/ha): 0 | Plant response rating, Kochia (kochia (Kochia scoparia); 31 g ai/ha, scale 0 to 100): 0 | Plant response rating, Kochia (kochia (Kochia scoparia); [20]): 0 | Soybean plant response rating (soybean (Glycine max); [12]): 0 | Soybean plant response rating (soybean (Glycine max); [13]): 0 | Plant response rating, Soybean (soybean (Glycine max); [14]): 0 | Plant response rating, Soybean (soybean (Glycine max); [15]): 0 | Plant response rating, Soybean (soybean (Glycine max); [16]): 0 | Plant response rating, Soybean (soybean (Glycine max); [17]): 0 | Soybean plant response rating (soybean (Glycine max); [18]): 0 | Soybean plant response rating (soybean (Glycine max); [19]): 0 | Foxtail, Green plant response rating [4, 12]: 85 | Plant response rating, Foxtail, Green [4, 21]: 95 | Plant response rating, Foxtail, Green [4, 14]: 98 | Plant response rating, Foxtail, Green [4, 15]: 100 | Plant response rating, Foxtail, Green [4, 16]: 100 | Plant response rating, Foxtail, Green [4, 17]: 100 | Foxtail, Green plant response rating [4, 18]: 100 | Foxtail, Green plant response rating [4, 19]: 100 | Plant response rating, Nightshade, E. B. [5, 22]: 0 | Plant response rating, Nightshade, E. B. [5, 23]: 65 | Nightshade, E. B. plant response rating ([5]; 8 g ai/ha): 0 | Nightshade, E. B. plant response rating ([5]; 16 g ai/ha): 0 | Lambsquarters plant response rating [6, 12]: 0 | Lambsquarters plant response rating [6, 13]: 0 | Plant response rating, Lambsquarters [6, 14]: 0 | Plant response rating, Lambsquarters [6, 15]: 0 | Plant response rating, Lambsquarters [6, 16]: 0 | Plant response rating, Lambsquarters [6, 17]: 20 | Lambsquarters plant response rating [6, 18]: 0 | Lambsquarters plant response rating [6, 19]: 0 | Wheat plant response rating [7, 12]: 40 | Wheat plant response rating [7, 13]: 70 | Plant response rating, Wheat [7, 14]: 90 | Plant response rating, Wheat [7, 15]: 95 | Plant response rating, Wheat [7, 16]: 25 | Plant response rating, Wheat [7, 17]: 85 | Wheat plant response rating [7, 19]: 0 | Plant response rating, Sunflower [8, 22]: 0 | Plant response rating, Sunflower [8, 23]: 0 | Sunflower plant response rating ([8]; 8 g ai/ha): 0 | Sunflower plant response rating ([8]; 16 g ai/ha): 0 | Crabgrass, Large plant response rating [9, 12]: 80 | Plant response rating, Crabgrass, Large [9, 21]: 90 | Plant response rating, Crabgrass, Large [9, 14]: 98 | Plant response rating, Crabgrass, Large [9, 15]: 100 | Plant response rating, Crabgrass, Large [9, 16]: 100 | Plant response rating, Crabgrass, Large [9, 17]: 100 | Crabgrass, Large plant response rating [9, 18]: 65 | Crabgrass, Large plant response rating [9, 19]: 95 | Blackgrass plant response rating [10, 12]: 90 | Plant response rating, Blackgrass [10, 21]: 95 | Plant response rating, Blackgrass [10, 14]: 98 | Plant response rating, Blackgrass [10, 15]: 100 | Plant response rating, Blackgrass ([10]; Preemergence, 16 g ai/ha, scale 0 to 100 (0 no effect, 100 complete control)): 100 | Plant response rating, Blackgrass [10, 16]: 100 | Plant response rating, Blackgrass [10, 17]: 100 | Blackgrass plant response rating [10, 18]: 85 | Morningglory plant response rating [11, 12]: 0 | Morningglory plant response rating [11, 13]: 0 | Plant response rating, Morningglory [11, 14]: 0 | Plant response rating, Morningglory [11, 15]: 0 | Plant response rating, Morningglory [11, 16]: 0 | Plant response rating, Morningglory [11, 17]: 0 | Morningglory plant response rating [11, 18]: 0 | Morningglory plant response rating [11, 19]: 0

CCCc1cc(-c2ccc(Cl)cc2)nn1-c1c(O)cnn(C)c1=O [Compound 76]
Goosegrass plant response rating [1, 12]: 20 | Goosegrass plant response rating [1, 13]: 60 | Plant response rating, Goosegrass [1, 14]: 70 | Plant response rating, Goosegrass [1, 15]: 75 | Plant response rating, Goosegrass [1, 16]: 80 | Plant response rating, Goosegrass [1, 17]: 100 | Goosegrass plant response rating [1, 18]: 20 | Goosegrass plant response rating [1, 19]: 75 | Ragweed plant response rating [2, 12]: 0 | Ragweed plant response rating [2, 13]: 0 | Plant response rating, Ragweed [2, 14]: 0 | Plant response rating, Ragweed [2, 15]: 0 | Plant response rating, Ragweed [2, 16]: 0 | Plant response rating, Ragweed [2, 17]: 0 | Ragweed plant response rating [2, 18]: 0 | Ragweed plant response rating [2, 19]: 0 | Oat, Wild plant response rating (wild oat (Avena fatua); [12]): 80 | Oat, Wild plant response rating (wild oat (Avena fatua); [13]): 95 | Plant response rating, Oat, Wild (wild oat (Avena fatua); [14]): 100 | Plant response rating, Oat, Wild (wild oat (Avena fatua); [15]): 100 | Plant response rating, Oat, Wild (wild oat (Avena fatua); [16]): 5 | Plant response rating, Oat, Wild (wild oat (Avena fatua); [17]): 80 | Oat, Wild plant response rating (wild oat (Avena fatua); [18]): 0 | Oat, Wild plant response rating (wild oat (Avena fatua); [19]): 0 | Surinam Grass plant response rating [3, 12]: 65 | Surinam Grass plant response rating [3, 13]: 90 | Plant response rating, Surinam Grass [3, 14]: 100 | Plant response rating, Surinam Grass [3, 15]: 100 | Plant response rating, Surinam Grass [3, 16]: 95 | Plant response rating, Surinam Grass [3, 17]: 100 | Surinam Grass plant response rating [3, 18]: 65 | Surinam Grass plant response rating [3, 19]: 90 | Kochia plant response rating (kochia (Kochia scoparia); 8 g ai/ha): 0 | Kochia plant response rating (kochia (Kochia scoparia); 16 g ai/ha): 0 | Plant response rating, Kochia (kochia (Kochia scoparia); 31 g ai/ha, scale 0 to 100): 0 | Plant response rating, Kochia (kochia (Kochia scoparia); [20]): 0 | Soybean plant response rating (soybean (Glycine max); [12]): 0 | Soybean plant response rating (soybean (Glycine max); [13]): 0 | Plant response rating, Soybean (soybean (Glycine max); [14]): 0 | Plant response rating, Soybean (soybean (Glycine max); [15]): 0 | Plant response rating, Soybean (soybean (Glycine max); [16]): 0 | Plant response rating, Soybean (soybean (Glycine max); [17]): 0 | Soybean plant response rating (soybean (Glycine max); [18]): 0 | Soybean plant response rating (soybean (Glycine max); [19]): 0 | Foxtail, Green plant response rating [4, 12]: 65 | Plant response rating, Foxtail, Green [4, 21]: 85 | Plant response rating, Foxtail, Green [4, 14]: 95 | Plant response rating, Foxtail, Green [4, 15]: 100 | Plant response rating, Foxtail, Green [4, 16]: 90 | Plant response rating, Foxtail, Green [4, 17]: 90 | Foxtail, Green plant response rating [4, 18]: 40 | Foxtail, Green plant response rating [4, 19]: 65 | Plant response rating, Nightshade, E. B. [5, 22]: 0 | Plant response rating, Nightshade, E. B. [5, 23]: 0 | Nightshade, E. B. plant response rating ([5]; 8 g ai/ha): 0 | Nightshade, E. B. plant response rating ([5]; 16 g ai/ha): 0 | Lambsquarters plant response rating [6, 12]: 0 | Lambsquarters plant response rating [6, 13]: 0 | Plant response rating, Lambsquarters [6, 14]: 0 | Plant response rating, Lambsquarters [6, 15]: 0 | Plant response rating, Lambsquarters [6, 16]: 0 | Plant response rating, Lambsquarters [6, 17]: 0 | Lambsquarters plant response rating [6, 18]: 0 | Lambsquarters plant response rating [6, 19]: 0 | Wheat plant response rating [7, 12]: 10 | Wheat plant response rating [7, 13]: 30 | Plant response rating, Wheat [7, 14]: 30 | Plant response rating, Wheat [7, 15]: 35 | Plant response rating, Wheat [7, 16]: 0 | Plant response rating, Wheat [7, 17]: 0 | Wheat plant response rating [7, 19]: 0 | Plant response rating, Sunflower [8, 22]: 0 | Plant response rating, Sunflower [8, 23]: 0 | Sunflower plant response rating ([8]; 8 g ai/ha): 0 | Sunflower plant response rating ([8]; 16 g ai/ha): 0 | Crabgrass, Large plant response rating [9, 12]: 20 | Plant response rating, Crabgrass, Large [9, 21]: 85 | Plant response rating, Crabgrass, Large [9, 14]: 95 | Plant response rating, Crabgrass, Large [9, 15]: 100 | Plant response rating, Crabgrass, Large [9, 16]: 55 | Plant response rating, Crabgrass, Large [9, 17]: 98 | Crabgrass, Large plant response rating [9, 18]: 0 | Crabgrass, Large plant response rating [9, 19]: 20 | Blackgrass plant response rating [10, 12]: 70 | Plant response rating, Blackgrass [10, 21]: 85 | Plant response rating, Blackgrass [10, 14]: 100 | Plant response rating, Blackgrass [10, 15]: 100 | Plant response rating, Blackgrass [10, 16]: 80 | Plant response rating, Blackgrass [10, 17]: 90 | Blackgrass plant response rating [10, 18]: 40 | Blackgrass plant response rating [10, 19]: 40 | Morningglory plant response rating [11, 12]: 0 | Morningglory plant response rating [11, 13]: 0 | Plant response rating, Morningglory [11, 14]: 0 | Plant response rating, Morningglory [11, 15]: 0 | Plant response rating, Morningglory [11, 16]: 0 | Plant response rating, Morningglory [11, 17]: 0 | Morningglory plant response rating [11, 18]: 0 | Morningglory plant response rating [11, 19]: 0
